Consider three compounds from PMC7046553, “Backbone Cyclization and Dimerization of LL-37-Derived Peptides Enhance Antimicrobial Activity and Proteolytic Stability” (Frontiers in Microbiology, 2020).

Series [1] deals with Candida albicans ATCC 90028. Particulars: ATCC 90028, 5 h. How it is done: (§1) The three bacterial strains: Escherichia coli ATCC 25922, Pseudomonas aeruginosa ATCC 27853 Staphylococcus aureus ATCC 29213 as well as the fungal strain Candida albicans ATCC 90028 derived from clinical wound infections were obtained from the Department of Clinical Bacteriology at Lund University Hospital.
(§2) Antimicrobial activities of the peptides were evaluated using the two-step microdilution assay ([Strömstedt et al., 2017]), which is designed for testing AMPs without activity-inhibiting components. Briefly, the microbial suspension was washed twice with 10 mM Tris buffer (set to pH 7.4 at 37°C). 96-well plates (U-shaped, untreated polystyrene) were prepared with peptide 2-fold serial dilutions in Tris buffer. The culture density was quantified by OD600, diluted in Tris buffer and 50,000 cells aliquoted to each well in the 96-well plate to a final 100 μl volume. After 5 h of aerobic incubation at 37°C, 5 μl of 20% TSB medium was added to each well (resulting in 1% TSB) and the plates were re-incubated. Growth-inhibition was monitored when controls produced pellet sizes of 2 mm in diameter (close to growth saturation), which equates to 5, 8, 10, and 12 h for E. coli, S. aureus, P. aeruginosa, and C. albicans, respectively. […] The MIC-values in Table 1, are medians from triplicate experiments, while the data presented in the Figure 2 are the same values relative to that of KR-12.

Series [2] relates to Escherichia coli ATCC 25922. Particulars: ATCC 25922, 5 h. The protocol:
as §1, §2

For series [3], the system named is Pseudomonas aeruginosa ATCC 27853. Particulars: ATCC 27853, 5 h. The protocol:
as §1, §2

Series [4] relates to Staphylococcus aureus ATCC 29213. Particulars: ATCC 29213, 5 h. The protocol: as §1, §2
Series [5] is classed as cell-based, human. The source says:
FIGURE 4 Cytotoxicity. Cytotoxicity on a human lymphoma cell line (U-937 GTB). The cell viability derives from the hydrolysis of the probe fluorescein diacetate by esterases in cells with intact plasma membranes. Results are means from triplicates with standard deviation, and the IC50 level is highlighted by a double line. The dose–response curve for LL-37 has been constrained within 100% to compensate for elevated fluorescein hydrolysis by intermediate LL-37 concentrations. The data for KR-12, Q5K,D9K and LL-37 are from our previous work ([Gunasekera et al., 2018]), but tested in parallel with the dimers and included here for consistency.
The cytotoxicity of the peptides was tested on the human lymphoma cell line U-937 GTB in a fluorometric microculture cytotoxicity assay (FMCA), described in detail previously ([Sundström and Nilsson, 1976]; [Lindhagen et al., 2008]). […] After incubation for 40 minutes the fluorescence was measured at 485 nm excitation and 538 nm emission using a Fluoroscan II (Labsystems Diagnostics Oy, Helsinki, FinlandI). The IC50-values were calculated using sigmoidal dose response curves with nonlinear non-linear regression and 0/100 constraints in GraphPad Prism (GraphPad Software, San Diego, CA, United States). […]

The next series deals with Human type A RBCs. Description: Hemolysis assay. The format is cell-based. How it is done:
Peptides were dissolved in water and serially diluted in PBS to give 20 μl test solutions in a 96-well U-bottomed microtiter plate (Nunc). Human type A RBCs (red blood cells) were washed with PBS and centrifuged at 1500 g for 60 s in a microcentrifuge several times until a clear supernatant was obtained. A 0.25% suspension of washed RBCs in PBS (100 μl) was added to the peptide solutions. The plate was incubated at 37°C for 1 h and centrifuged at 150 g for 5 min. Aliquots of 100 μl were transferred to a 96-well flat-bottomed microtiter plate (Falcon) and the absorbance was measured at 405 nm with an automatic Multiskan Ascent plate reader (Labsystems). The amount of hemolysis was calculated as the percentage of maximum lysis (1% Triton X-100 control) after adjusting for minimum lysis (PBS control). Synthetic melittin (Sigma) was used for comparison. The hemolytic dose necessary to lyse 50% of the RBCs (HD50) was calculated using the regression constant from the linear portion of the hemolytic titration curve (GraphPad Prism software).

Another series in a line: in vitro. Particulars: human, 25% human serum. How it is done:
Proteolytic stability of the peptides were determined in diluted human serum (1:4 v/v, serum:PBS) at 37°C followed by LC-MS analysis. To examine the intact peptide after serum incubation, aliquots of each incubation mixture were taken at each time point for LC-MS analysis (Figure 5).
Peptide stability was assayed in diluted human serum. 25% human serum was centrifuged at 13,000 rpm for 10 min to remove lipids and the supernatant was collected and incubated at 37°C for 15 min. […] Eighty μl of 6 M urea was added and incubated at 4°C for a further 10 min. 80 μl of 20% TCA was added and incubated at 4°C for a further 10 min. The samples were centrifuged at 13000 g for 10 min and the supernatant was analyzed by LC-MS.

The test system of series [6] is human lymphoma cell line U-937 GTB. Particulars: read-out: IC50 (cytotoxicity); 72 hours incubation; tested in parallel with the dimers; ref Gunasekera et al., 2018; cited from earlier work.

As usually defined, the IC50 is the midpoint of a concentration-inhibition curve. As a reminder, the amount remaining is the share of the starting amount still present when the sample was taken. Lower therefore signals more turnover.

Molecules are shown by their SMILES. ≈ marks a conversion by molar mass, not a printed value. Read-outs that look alike come from different tables or passages of the source. Where a SMILES comes first, the peptide text is derived from it. Where only a bound is given, the exact number is not on record here.

Consider `CC[C@H](C)[C@@H]1NC(=O)[C@H](CCCNC(=N)N)NC(=O)[C@H](CCCCN)NC(=O)[C@H](C(C)C)NC(=O)[C@H]([C@@H](C)CC)NC(=O)[C@H](CCCNC(=N)N)NC(=O)[C@H](CCCCN)NC(=O)CNC(=O)CNC(=O)[C@H](C)NC(=O)CNC(=O)[C@H](CCCNC(=N)N)NC(=O)[C@H](CC(C)C)NC(=O)[C@H](Cc2ccccc2)NC(=O)[C@H](CCCCN)NC(=O)[C@H](CCCCN)NC(=O)[C@H]([C@@H](C)CC)NC(=O)[C@H](CCCNC(=N)N)NC(=O)[C@H](CCCCN)NC(=O)[C@H](C(C)C)NC(=O)[C@H]([C@@H](C)CC)NC(=O)[C@H](CCCNC(=N)N)NC(=O)[C@H](CCCCN)NC(=O)CNC(=O)CNC(=O)[C@H](C)NC(=O)CNC(=O)[C@H](CCCNC(=N)N)NC(=O)[C@H](CC(C)C)NC(=O)[C@H](Cc2ccccc2)NC(=O)[C@H](CCCCN)NC(=O)[C@H](CCCCN)NC1=O` [cd4(Q5K,D9K)] (cyclo(AGGKRIVKRIKKFLRGAGGKRIVKRIKKFLRG)), for which, in series [1], the “MIC C. albicans” value worked out at 1.25 µM (≈ 4.52 µg/mL) and the MIC fung. amounted to 1.25 µM (≈ 4.52 µg/mL). Besides, in series [2], the “MIC E. coli” value worked out at 0.625 µM (≈ 2.26 µg/mL) and the MIC bact. is 0.63 µM (≈ 2.28 µg/mL). For the same compound, the “MIC P. aeruginosa” value in series [3] stood at 0.625 µM (≈ 2.26 µg/mL). Besides, the “MIC S. aureus” value in series [4] worked out at 0.625 µM (≈ 2.26 µg/mL). In series [5], 1 µM corresponded to half-maximal inhibition (IC50). Besides, the “HC50 (hemolysis)” value with Human type A RBCs (red cells of human, 1 h) was found to be 10 µM. In the series “in vitro”, this compound returned a share remaining at 6 h of around 50%.
Turning to `CC[C@H](C)[C@@H]1NC(=O)[C@H](CCCNC(=N)N)NC(=O)[C@H](CCC(N)=O)NC(=O)[C@H](C(C)C)NC(=O)[C@H]([C@@H](C)CC)NC(=O)[C@H](CCCNC(=N)N)NC(=O)[C@H](CCCCN)NC(=O)CNC(=O)CNC(=O)[C@H](C)NC(=O)CNC(=O)[C@H](CCCNC(=N)N)NC(=O)[C@H](CC(C)C)NC(=O)[C@H](Cc2ccccc2)NC(=O)[C@H](CC(=O)O)NC(=O)[C@H](CCCCN)NC(=O)[C@H]([C@@H](C)CC)NC(=O)[C@H](CCCNC(=N)N)NC(=O)[C@H](CCC(N)=O)NC(=O)[C@H](C(C)C)NC(=O)[C@H]([C@@H](C)CC)NC(=O)[C@H](CCCNC(=N)N)NC(=O)[C@H](CCCCN)NC(=O)CNC(=O)CNC(=O)[C@H](C)NC(=O)CNC(=O)[C@H](CCCNC(=N)N)NC(=O)[C@H](CC(C)C)NC(=O)[C@H](Cc2ccccc2)NC(=O)[C@H](CC(=O)O)NC(=O)[C@H](CCCCN)NC1=O` [cd4] (cyclo(AGGKRIVQRIKDFLRGAGGKRIVQRIKDFLRG)), in series [1], the “MIC C. albicans” value worked out at 2.5 µM (≈ 8.98 µg/mL) and the MIC fung. turned out to be 2.5 µM (≈ 8.98 µg/mL). In addition, in series [2], the “MIC E. coli” value was 0.625 µM (≈ 2.25 µg/mL) and the MIC bact. was 0.63 µM (≈ 2.26 µg/mL). Further, the “MIC P. aeruginosa” value in series [3] came to 0.625 µM (≈ 2.25 µg/mL). The “MIC S. aureus” value in series [4] was 1.25 µM (≈ 4.49 µg/mL). In series [5], the IC50 was found to be 5.1 µM. For the same compound, the “HC50 (hemolysis)” value with Human type A RBCs is above 40 µM. For the same compound, the amount remaining at 6 h in the series “in vitro” was around 50%.
Regarding `CC[C@H](C)[C@H](NC(=O)[C@H](CCCCN)NC(=O)[C@H](CCC(=O)O)NC(=O)[C@H](CCCCN)NC(=O)[C@H](CO)NC(=O)[C@H](CCCCN)NC(=O)[C@H](CCCNC(=N)N)NC(=O)[C@H](Cc1ccccc1)NC(=O)[C@H](Cc1ccccc1)NC(=O)[C@H](CC(=O)O)NC(=O)CNC(=O)[C@H](CC(C)C)NC(=O)[C@@H](N)CC(C)C)C(=O)NCC(=O)N[C@@H](CCCCN)C(=O)N[C@@H](CCC(=O)O)C(=O)N[C@@H](Cc1ccccc1)C(=O)N[C@@H](CCCCN)C(=O)N[C@@H](CCCNC(=N)N)C(=O)N[C@H](C(=O)N[C@H](C(=O)N[C@@H](CCC(N)=O)C(=O)N[C@@H](CCCNC(=N)N)C(=O)N[C@H](C(=O)N[C@@H](CCCCN)C(=O)N[C@@H](CC(=O)O)C(=O)N[C@@H](Cc1ccccc1)C(=O)N[C@@H](CC(C)C)C(=O)N[C@@H](CCCNC(=N)N)C(=O)N[C@@H](CC(N)=O)C(=O)N[C@@H](CC(C)C)C(=O)N[C@H](C(=O)N1CCC[C@H]1C(=O)N[C@@H](CCCNC(=N)N)C(=O)N[C@H](C(=O)N[C@@H](CCC(=O)O)C(=O)N[C@@H](CO)C(=O)O)[C@@H](C)O)C(C)C)[C@@H](C)CC)C(C)C)[C@@H](C)CC` [LL-37], the IC50 in series [6] was 10 µM.
